Results on two compounds are retold here after US20090042790A1, “TRANSMUCOSAL DELIVERY OF PEPTIDE DERIVATIVES” (NASTECH PHARMACEUTICAL COMPANY INC., priority 2005, published 2009).

The target of assay [1] is T1, melanocortin-4 cell receptor (MC4 receptor) (Homo sapiens, UniProt P32245).
T1 construct: expressed in transfected cells; host or cells: HEK293
Nature of the assay: cAMP assay in HEK293 cells expressing the MC4 receptor. The class given is cell-based. The conditions noted are these: 1×10^−11 to 1×10^−5 M, FIG. 1, read-out: effective concentration to reach a 50% response level (EC50), cAMP production. As to the method:
FIG. 1: The ability of the 2 kDa PEGylated MC4-RA and unmodified MC-4RA to stimulate cAMP production in cells expressing the melanocortin-4 cell receptor (MC4 receptor) was compared. HEK293 cells expressing the MC4 receptor were incubated with either the 2 kDa PEGylated MC4-RA or the unmodified MC4-RA. The concentrations used for either MC4-RA in the cAMP assay ranged from approximately 1×10^−11 to 1×10^−5 M. The maximum quantity of cAMP was normalized to 100% or “% Max Response” and the concentration of 2 kDA PEGylated or unmodified MC4-RA was shown as the log of the Molar concentration. The effective concentration to achieve a 50% response (EC50) is shown.
An ideal property of any therapeutic agent is target specificity as induction, for example, of unwanted cell surface receptors and/or cell signaling pathways may lead to deleterious outcomes in the patient subject. […]
Potency was measured as the ability of the 2 kDa PEGylated MC4-RA or the unmodified MC4-RA to stimulate cAMP production in cells expressing the melanocortin-4 cell receptor (MC4 receptor). […] The experiment was performed in triplicate and cAMP levels were measured with the cAMP Tropix assay kit. The maximum quantity of cAMP was normalized to 100% or “% Max Response” and the concentration of 2 kDa PEGylated or unmodified MC4-RA is shown as the log of the Molar concentration.
(In general: Changes in cAMP serve as a functional read-out for many G protein-coupled receptors.)

The test system of assay [2] is male DOI mice (obesity mouse model system). Nature of the assay: Cumulative food intake in male DOI mice. The settings on record: high dose group (doses 1.25, 2.5, 5 mg/kg); 16 and 24 hours after dose administration; vs 30% PEG control; FIG. 3. The class given is in vivo. As to the method:
The effect of the low molecular weight PEGylated MC4-RA and unmodified MC4-RA on food intake was evaluated under regular light cycle in male DOI mice (obesity mouse model system). Control mice were administered a 30% PEG formulation. For the unmodified MC4-RA in vivo study, individual subjects categorized into three separate study groups, based on dosage levels, were administered 1.25 mg/kg, 2.5 mg/kg or 5 mg/kg of unmodified MC4-RA. For the 2 kDa PEGylated MC4-RA in vivo study, individual subjects categorized into three separate study groups, again based on dosage levels, were administered 5 mg/kg, 10 mg/kg and 20 mg/kg 2 kDa PEGylated MC4-RA. The effective does is higher for the PEGylated MC4-RA due to the tripled molecular weight resulting from the conjugation of a 2 kDa PEG to the MC4-RA molecule.

For assay [3], the target named is T2, melanocortin-1 (MC1 receptor) (Homo sapiens, UniProt Q01726).
T2 construct: expressed in transfected cells; host or cells: HEK293
T2 sequence (Q01726 whole entry): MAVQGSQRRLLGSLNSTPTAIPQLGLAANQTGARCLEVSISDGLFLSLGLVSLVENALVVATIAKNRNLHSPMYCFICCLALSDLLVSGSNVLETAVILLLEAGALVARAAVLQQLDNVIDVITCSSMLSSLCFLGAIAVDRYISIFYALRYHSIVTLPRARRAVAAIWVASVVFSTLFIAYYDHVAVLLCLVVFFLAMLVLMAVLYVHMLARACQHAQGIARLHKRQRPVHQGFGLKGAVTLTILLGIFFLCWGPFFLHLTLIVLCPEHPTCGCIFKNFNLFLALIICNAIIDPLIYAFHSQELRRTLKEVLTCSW
Nature of the assay: cAMP assay in HEK293 cells expressing the MC1 receptor. The class given is cell-based. The conditions noted are these: 1×10^−11 to 1×10^−5 M, FIG. 2, read-out: effective concentration to reach a 50% response level (EC50), cAMP production. The method, then:
FIG. 2: The degree of MC4 receptor specificity of the 2 kDa PEGylated MC4-RA and the unmodified MC4-RA was compared. The ability to stimulate cAMP production in cells in vitro was assayed; HEK293 cells expressed the melanocortin-1 (MC1 receptor). A measured increase in cAMP levels indicated a lack of MC4 receptor specificity. The 2 kDa PEGylated and unmodified MC4-RA were incubated in a concentration range of approximately 1×10^−11 to 1×10^−5 M with HEK293 cells that were expressing the MC1 receptor. The maximum quantity of cAMP was normalized to 100% or “% Max Response” and the concentration of 2 kDA PEGylated or unmodified MC4-RA was shown as the log of the Molar concentration. The effective concentration to achieve a 50% response (EC50) is shown.
The degree of MC4 receptor specificity of the 2 kDa PEGylated MC4-RA and the unmodified MC4-RA was compared. […] In this instance, a measured increase in cAMP levels would indicate a lack of MC4 receptor specificity. […] The experiment was performed in triplicate and cAMP levels were measured with the cAMP Tropix assay kit. The maximum quantity of cAMP was normalized to 100% or “% Max Response” and the concentration of 2 kDa PEGylated or unmodified MC4-RA is shown as the log of the Molar concentration.

Assay [4] has as its system EpiAirway™ epithelial cell monolayer. Nature of the assay: Transepithelial electrical resistance (TEER) of EpiAirway epithelial cell monolayer. The conditions noted are these: positive TEER control. Format: cell-based. The method, then: The epithelial cells are grown on porous membrane-bottomed cell culture inserts at an air-liquid interface, which results in differentiation of the cells to a highly polarized morphology. The apical surface is ciliated with a microvillous ultrastructure and the epithelium produces mucus (the presence of mucin has been confirmed by immunoblotting). The inserts have a diameter of 0.875 cm, providing a surface area of 0.6 cm^2. The cells are plated onto the inserts at the factory approximately three weeks before shipping. One “kit” consists of 24 units.
These junctions confer a transepithelial resistance of several hundred ohms×cm^2 in excised airway tissues.

*1 amine or outer side, *2 acyl side, *3 side chain or, on linkers, in order; H or OH if unused. Where a SMILES comes first, the peptide text is derived from it. Bridges are numbered along the chain shown (N, C = ends). [ ]: non-standard residue; d: D form. The star is where a group is joined. X1 = COc1ccc(C2CCC(N[*:1])(C(=O)[*:2])CC2)cc1; Pentanoyl = CCCCC(=O)*

T1 sequence (P32245 whole entry): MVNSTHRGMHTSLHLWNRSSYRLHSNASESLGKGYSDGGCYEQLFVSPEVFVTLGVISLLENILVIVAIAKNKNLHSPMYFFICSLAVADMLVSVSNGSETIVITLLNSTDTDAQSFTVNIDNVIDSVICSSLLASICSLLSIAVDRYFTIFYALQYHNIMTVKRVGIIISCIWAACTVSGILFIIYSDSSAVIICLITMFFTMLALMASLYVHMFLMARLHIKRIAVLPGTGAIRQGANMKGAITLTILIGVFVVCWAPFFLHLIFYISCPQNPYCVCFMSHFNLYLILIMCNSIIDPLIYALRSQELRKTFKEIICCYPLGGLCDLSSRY

On to `CCCCC(=O)N[C@H]1CCC(=O)NCCCC[C@@H](C(N)=O)NC(=O)[C@H](Cc2c[nH]c3ccccc23)NC(=O)[C@H](CCCNC(=N)N)NC(=O)[C@@H](Cc2ccccc2)NC(=O)C2(CCC(c3ccc(OC)cc3)CC2)NC1=O` (some centres unmarked) [unmodified MC4-RA] (Pentanoyl-E[X1][dF]RWK-NH2; lactam 1-6), for which the EC50 in assay [1] was 0.5 nM; in assay [3] it was about 800 nM. Moreover, the cumulative food intake entry in assay [2] is listed as “significant reduction on cumulative food intake”.

For “octylphenolpoly(ethyleneglycolether) [Triton X-100 ™]”, the “Average TEER Measurement” value is on record as 1.5 in assay [4] (Table 3 formulation #11: 9% Triton X-100 only) and 1.2 in assay [4] (Table 5 formulation #17: 9% Triton X-100 only).
